BindingDB's records for doi:10.1016/j.bmcl.2006.04.082 (Pharmacopeia Drug Discovery, 2006)

Target: T1, C-X-C chemokine receptor type 2 (Homo sapiens, UniProt P25025)
T1 sequence (P25025 whole entry): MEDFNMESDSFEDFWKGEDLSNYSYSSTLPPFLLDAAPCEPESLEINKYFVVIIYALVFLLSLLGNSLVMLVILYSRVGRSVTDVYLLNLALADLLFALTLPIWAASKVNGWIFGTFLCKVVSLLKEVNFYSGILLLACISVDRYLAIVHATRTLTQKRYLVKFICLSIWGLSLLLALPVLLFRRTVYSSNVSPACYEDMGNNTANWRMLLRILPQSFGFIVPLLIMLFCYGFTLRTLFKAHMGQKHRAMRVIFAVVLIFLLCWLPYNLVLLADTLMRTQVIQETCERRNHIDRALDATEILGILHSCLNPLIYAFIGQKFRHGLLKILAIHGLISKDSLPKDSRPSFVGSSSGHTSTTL
Assay: Displacement of [125I]IL8 from human CXCR2 expressed in CHO cells

| IC50 [nM] | Compound |
| --- | --- |
| 10 | CC(C)Nc1c(Nc2cccc(C(=O)N(C)C)c2O)c(=O)c1=O [2-hydroxy-3-(2-(isopropylamino)-3,4-dioxocyclobut-1-enylamino)-N,N-dimethylbenzamide] |
| 10 | CN(C)C(=O)c1cccc(Nc2c(NC3CCCCC3)c(=O)c2=O)c1O [3-(2-(cyclohexylamino)-3,4-dioxocyclobut-1-enylamino)-2-hydroxy-N,N-dimethylbenzamide] |
